The values that follow come from patent US20240253988A1, “PROCESS FOR THE PRODUCTION OF HYDROGEN PEROXIDE” (ARKEMA FRANCE, priority 2021, published 2024).

Series [1] can be described thus: Specific gravity, hydrometer ASTM-D891. In kind it is physicochemical. An excerpt:
The organic solvent according to the present invention may have a specific gravity equal to or lower than 0.95, and preferably equal to or lower than 0.94. According to preferred embodiments, the organic solvent according to the present invention may have a specific gravity from 0.89 to 0.95, and preferably from 0.90 to 0.94. Specific gravity can be determined by means of a hydrometer according to ASTM-D891.
Specific gravity can be determined by means of a hydrometer according to ASTMD891.

The nature of series [2]: Flash point, closed-cup apparatus ASTM-D3278. In kind it is physicochemical. The protocol: According to preferred embodiments, the organic solvent according to the present invention may have a flash point higher than 60° C., preferably higher than 62.5° C. and more preferably higher than 65° C. Flash point can be determined by closed-cup apparatus according to ASTM-D3278.
Flash point can be determined by closed-cup apparatus according to ASTM-D3278.

A short description of series [3]: Vapor pressure, ebulliometry ASTM-E1719. In kind it is physicochemical. How it is done: Furthermore, the solvent of formula (I) may have a vapor pressure equal to or lower than 450 Pa, preferably equal to or lower than 400 Pa, and more preferably equal to or lower 350 Pa at 20° C. For example, the solvent of formula (I) may have a vapor pressure equal to or lower than 450 Pa, or equal to or lower than 400 Pa, or equal to or lower than 350 Pa, or equal to or lower than 300 Pa, or equal to or lower than 250 Pa, or equal to or lower than 200 Pa, or equal to or lower than 250 Pa, or equal to or lower than 200 Pa, or equal to or lower than 150 Pa, or equal to or lower than 100 Pa, at 20° C. Vapor pressure can be determined by ebulliometry according to ASTM-E1719.
Vapor pressure can be determined by ebulliometry according to ASTM-E1719.

A short description of series [4]: Water solubility, coulometric Karl Fischer titration ASTM-D6304. In kind it is physicochemical. How it is done: According to some preferred embodiments, the organic solvent is not soluble (or essentially not soluble) in water, and preferably has a water solubility equal to or lower than 200 mg/kg, preferably equal to or lower than 190 mg/kg, and more preferably equal to or lower than […]. Water solubility can be determined by coulometric Karl Fischer titration according to ASTM-D6304.
Water solubility can be determined by coulometric Karl Fischer titration according to ASTM-D6304.

Series [5] is classed as physicochemical. How it is done: The solubility of 2-ethylanthraquinone (2-EAQ) was measured in four different solvents. Solvents A to C are according to the invention, while solvent D is a comparative solvent: • Solvent A: 1-ethyl-4-methoxybenzene • Solvent B: 2,6-dimethylanisole • Solvent C: phenylpropylether • Solvent D: 1,3,5-trimethylbenzene
Solubilities were determined by equilibrating the 2-ethylanthraquinone with the solvent in a glass flask shaken in a carefully temperature controlled atmosphere. Analysis of the samples was done by liquid chromatography. Reference mixtures were prepared for calibration.
The solubility is measured at a temperature of 20° C.

The compound `COc1ccccc1` [Anisole (*), Anisole, reference compound] had a Specific gravity in series [1] of 0.995. Further, the Flashpoint in series [2] is 49-52 °C. In addition, the “Vapor Pressure” value in series [3] worked out at 490 Pa. Besides, in series [4], the Water solubility was found to be 1728 mg/kg.
Turning to `CCc1ccc(OC)cc1` [Solvent A, 1-ethyl-4-methoxybenzene], the Specific gravity in series [1] turned out to be 0.944. The 2-EAQ solubility in series [5] is 229 g/kg of solvent. Further, in series [2], the Flashpoint is 68-72 °C. For the same compound, the “Vapor Pressure” value in series [3] is given as 67 Pa. The compound also showed a Water solubility in series [4] of 90 mg/kg.
In the same order, the values of `COc1c(C)cccc1C` [Solvent B, 2,6-dimethylanisole] are 0.943, 226 g/kg of solvent, 61-67 °C, 124 Pa and 114 mg/kg.
The matching figures for `CCCOc1ccccc1` [Solvent C, phenylpropylether]: 0.946, 229 g/kg of solvent, 64-65 °C, 60 Pa and 141 mg/kg.
In the case of `Cc1cc(C)cc(C)c1` [Solvent D, 1,3,5-trimethylbenzene, reference compound], the 2-EAQ solubility in series [5] was 210 g/kg of solvent.
